In patent US20120328569A1, “INHIBITORS OF HEPATITIS C VIRUS NS5B POLYMERASE” (priority 2010, published 2012) one finds IC50 data, which are given here for 34 compounds.

Each structure is given as a SMILES string.

This assay concerns HCV genotype 1b replicon. Description: HCV replicon assay, cell ELISA with antibody to replicon-encoded NS3/4A (genotype 1b replicon). The class given is cell-based, hepatitis C virus. Particulars: Hepatitis C virus, 96 h, read-out: Replicon 1b IC50 (nM), HCV genotype 1b replicon cells, 96 hours incubation, NS3/4A ELISA readout. The protocol: The HCV NS5B inhibitory activity of the present compounds may be tested using assays known in the art. The HCV NS5B polymerase inhibitors described herein have activities in a genotype 1b replicon assay as described in the Examples. The assay is performed by incubating a replicon harboring cell-line in the presence of inhibitor for a set period of time and measuring the effect of the inhibitor on HCV replicon replication either directly by quantifying replicon RNA level, or indirectly by measuring enzymatic activity of a co-encoded reporter enzyme such as luciferase or β-lactamase. By performing a series of such measurements at different inhibitor concentrations, the effective inhibitory concentration of the inhibitor (EC50 or EC90) is determined. See Jan M. Vrolijk et al., A replicons-based bioassay for the measurement of interferons in patients with chronic hepatitis C, 110 J. VIROLOGICAL METHODS 201 (2003). Such assays may also be run in an automated format for high through-put screening. See Paul Zuck et al., A cell-based β-lactamase reporter gene assay for the identification of inhibitors of hepatitis C virus replication, 334 ANALYTICAL BIOCHEMISTRY 344 (2004).
Measurement of inhibition by compounds was performed using the HCV replicon system. Several different replicons encoding different HCV genotypes or mutations were used. In addition, potency measurements were made using different formats of the replicon assay, including different ways of measurements and different plating formats. See Jan M. Vrolijk et al., A replicons-based bioassay for the measurement of interferons in patients with chronic hepatitis C, 110 J. VIROLOGICAL METHODS 201 (2003); Steven S. Carroll et al., Inhibition of Hepatitis C Virus RNA Replication by 2′-Modified Nucleoside Analogs, 278(14) J. BIOLOGICAL CHEMISTRY 11979 (2003). However, the underlying principles are common to all of these determinations, and are outlined below.
Stable neomycin phosphotransferase encoding replicons-harboring cell lines were used, so all cell lines were maintained under G418 selection prior to the assay. Potency was determined using a cell ELISA assay with an antibody to the replicons encoded NS3/4a protease. See Caterina Trozzi et al., In Vitro Selection and Characterization of Hepatitis C Virus Serine Protease Variants Resistant to an Active-Site Peptide Inhibitor, 77(6) J. Virol. 3669 (2003). To initiate an assay, replicon cells were plated in the presence of a dilution series of test compound in the absence of G418. Typically, the assays were performed in a 96-well plate formate for manual operation, or a 384-well plate format for automated assay. Replicon cells and compound were incubated for 96 hours. At the end of the assay, cells were washed free of media and compound, and the cells were then lysed. RNA was quantified indirectly through detection of replicon-encoded NS3/4A protein levels, through an ELISA-based assay with an antibody specific for NS3/4A. IC50 determinations were calculated as a percentage of a DMSO control by fitting the data to a four-parameter fit function and the data obtained is provided in the table below.
In general terms: Replicon systems follow genome replication, usually without infectious particles.
As for `CNC(=O)c1c(-c2ccc(F)cc2)oc2cc(N(C)S(C)(=O)=O)c(-c3cccc(-c4cc5cc(F)ccc5[nH]4)c3)cc12` [Compound 367], the IC50 stood at 3.9 nM.
`CNC(=O)c1c(-c2ccc(F)cc2)oc2cc(N(C)S(C)(=O)=O)c(-c3cccc(-c4cc5ncccc5[nH]4)c3)cc12` [Compound 368]: the IC50 is 1.6 nM.
As to `CNC(=O)c1c(-c2ccc(F)cc2)oc2cc(N(C)S(C)(=O)=O)c(-c3cccc(-c4cc5cccnc5[nH]4)c3)cc12` [Compound 369], the IC50 worked out at 2.7 nM.
On to `CNC(=O)c1c(-c2ccc(F)cc2)oc2cc(N(C)S(C)(=O)=O)c(-c3cccc(-c4[nH]c5ccccc5c4C)c3)cc12` [Compound 370], for which the IC50 turned out to be 8.8 nM.
As to `CNC(=O)c1c(-c2ccc(F)cc2)oc2cc(N(C)S(C)(=O)=O)c(-c3cccc(-c4cc5cccc(Cl)c5[nH]4)c3)cc12` [Compound 371], the IC50 was 5.8 nM.
The result for `CNC(=O)c1c(-c2ccc(F)cc2)oc2cc(N(C)S(C)(=O)=O)c(-c3cc(F)cc(-c4cc5ccccc5[nH]4)c3)cc12` [Compound 372] reads 13 nM; that for `CNC(=O)c1c(-c2ccc(F)cc2)oc2cc(N(C)S(C)(=O)=O)c(-c3ccc(OC)c(-c4cc5ccccc5[nH]4)c3)cc12` [Compound 373], 3.9 nM; that for `CNC(=O)c1c(-c2ccc(F)cc2)oc2cc(N(C)S(C)(=O)=O)c(-c3ccc(OC)c(-c4cc5cccc(F)c5[nH]4)c3)cc12` [Compound 374], 52.4 nM.
For `CNC(=O)c1c(-c2ccc(F)cc2)oc2cc(N(C)S(C)(=O)=O)c(-c3cc(OC)cc(-c4cc5ccccc5[nH]4)c3)cc12` [Compound 375] the value was 2.7 nM; for `CNC(=O)c1c(-c2cccc(-c3cc4c(C(=O)NC)c(-c5ccc(F)cc5)oc4cc3N(C)S(C)(=O)=O)c2)[nH]c2ccccc12` [Compound 377], 1.2 nM; for `CNC(=O)c1c(-c2ccc(F)cc2)oc2cc(N(C)S(C)(=O)=O)c(-c3cc(OC)cc(-c4cc5cccnc5[nH]4)c3)cc12` [Compound 378], 1.8 nM.
For the compound `CNC(=O)c1c(-c2ccc(F)cc2)oc2cc(N(C)S(C)(=O)=O)c(-c3ccc(F)c(-c4cc5cccnc5[nH]4)c3)cc12` [Compound 380], the IC50 amounted to 1.2 nM.
The result for `CNC(=O)c1c(-c2ccc(F)cc2)oc2cc(N(CCO)S(C)(=O)=O)c(-c3cc(F)cc(-c4nc5ncccc5o4)c3)cc12` [Compound 386] reads 1.3 nM; that for `CNC(=O)c1c(-c2ccc(F)cc2)oc2cc(N(CCO)S(C)(=O)=O)c(-c3ccc(OC)c(-c4nc5ncccc5o4)c3)cc12` [Compound 387], 2.3 nM.
For `CNC(=O)c1c(-c2ccc(F)cc2)oc2cc(N(CCCCO)S(C)(=O)=O)c(-c3cccc(-c4nc5ncccc5o4)c3)cc12` [Compound 391] the value was 2.4 nM.
The result for `CNC(=O)c1c(-c2ccc(F)cc2)oc2cc(N(CCCC#N)S(C)(=O)=O)c(-c3cccc(-c4nc5ncccc5o4)c3)cc12` [Compound 393] reads 1.2 nM; that for `CNC(=O)c1c(-c2ccc(F)cc2)oc2cc(N(CCCCC#N)S(C)(=O)=O)c(-c3cccc(-c4nc5ncccc5o4)c3)cc12` [Compound 394], 1.4 nM.
On to `CNC(=O)c1c(-c2ccc(F)cc2)oc2cc(N(CCCNC(=O)OC(C)(C)C)S(C)(=O)=O)c(-c3cccc(-c4nc5ncccc5o4)c3)cc12` [Compound 395], for which the IC50 amounted to 8.2 nM.
For `CNC(=O)c1c(-c2ccc(F)cc2)oc2cc(N(CCCN)S(C)(=O)=O)c(-c3cccc(-c4nc5ncccc5o4)c3)cc12` [Compound 396] the value was 18.2 nM; for `CNC(=O)c1c(-c2ccc(F)cc2)oc2cc(N(CCN(C)C)S(C)(=O)=O)c(-c3cccc(-c4nc5ncccc5o4)c3)cc12` [Compound 398], 2.4 nM; for `CNC(=O)c1c(-c2ccc(F)cc2)oc2cc(N(CCCN(C)C)S(C)(=O)=O)c(-c3cccc(-c4nc5ncccc5o4)c3)cc12` [Compound 399], 2.8 nM.
Consider `CCS(=O)(=O)N(C)c1cc2oc(-c3ccc(F)cc3)c(C(=O)NC)c2cc1-c1cccc(-c2nc3ncccc3o2)c1` [Compound 401], for which the IC50 was 1.8 nM.
The result for `CNC(=O)c1c(-c2ccc(F)cc2)oc2cc(N(C)S(C)(=O)=O)c(-c3ccccc3)cc12` [Example 1, 2-(4-fluorophenyl)-N-methyl-6-[methyl(methylsulfonyl)amino]-5-phenyl-1-benzofuran-3-carboxamide] reads 120 nM; that for `CNC(=O)c1c(-c2ccc(F)cc2)oc2cc(N(CCO)S(C)(=O)=O)c(-c3ccccc3)cc12` [Example 2, 2-(4-fluorophenyl)-6-[(2-hydroxyethyl) (methylsulfonyl)amino]-N-methyl-5-phenyl-1-benzofuran-3-carboxamide], 114 nM; that for `CNC(=O)c1c(-c2ccc(F)cc2)oc2cc(N(CCN(C)c3ccccc3)S(C)(=O)=O)c(-c3ccccc3)cc12` [Example 3, 2-(4-fluorophenyl)-N-methyl-6-[{2-[methyl(phenyl)amino]ethyl} (methylsulfonyl)amino]-5-phenyl-1-benzofuran-3-carboxamide], 80 nM.
The result for `CNC(=O)c1c(-c2ccc(F)cc2)oc2cc(N(C(C)c3ccccc3)S(C)(=O)=O)c(-c3ccccc3)cc12` (stereo not shown) [Example 4, 2-(4-fluorophenyl)-N-methyl-6-[(methylsulfonyl) (1-phenylethyl)amino]-5-phenyl-1-benzofuran-3-carboxamide] reads 703 nM; that for `CCN(c1cc2oc(-c3ccc(F)cc3)c(C(=O)NC)c2cc1-c1ccccc1)S(C)(=O)=O` [Example 5, 6-[ethyl (methylsulfonyl)amino]-2-(4-fluorophenyl)-N-methyl-5-phenyl-1-benzofuran-3-carboxamide], 47 nM.
The result for `CNC(=O)c1c(-c2ccc(F)cc2)oc2cc(N(CCCc3ccccc3)S(C)(=O)=O)c(-c3ccccc3)cc12` [Example 6, 2-(4-fluorophenyl)-N-methyl-6-[(methylsulfonyl) (3-phenylpropyl)amino]-5-phenyl-1-benzofuran-3-carboxamide] reads 118 nM; that for `CONC(=O)c1c(-c2ccc(F)cc2)oc2cc(N(CCN(C)c3ccccc3)S(C)(=O)=O)c(-c3ccccc3)cc12` [Example 8, 2-(4-fluorophenyl)-N-methoxy-6-[{2-[methyl(phenyl)amino]ethyl} (methylsulfonyl)amino]-5-phenyl-1-benzofuran-3-carboxamide], 276 nM.
As to `CCN(c1cc2oc(-c3ccc(F)cc3)c(C(=O)NOC)c2cc1-c1ccccc1)S(C)(=O)=O` [Example 9, 6-[ethyl (methylsulfonyl)amino]-2-(4-fluorophenyl)-N-methoxy-5-phenyl-1-benzofuran-3-carboxamide], the IC50 stood at 99 nM.
The result for `CONC(=O)c1c(-c2ccc(F)cc2)oc2cc(N(CCCc3ccccc3)S(C)(=O)=O)c(-c3ccccc3)cc12` [Example 10, 2-(4-fluorophenyl)-N-methoxy-6-[(methylsulfonyl) (3-phenylpropyl)amino]-5-phenyl-1-benzofuran-3-carboxamide] reads 221 nM; that for `CNC(=O)c1c(-c2ccc(F)cc2)oc2cc(N(CC3CCCCC3)S(C)(=O)=O)c(-c3ccccc3)cc12` [Example 13, 6-[(cyclohexylmethyl)(methylsulfonyl)amino]-2-(4-fluorophenyl)-N-methyl-5-phenyl-1-benzofuran-3-carboxamide], 84 nM.
`CNC(=O)c1c(-c2ccc(F)cc2)oc2cc(N(CC(C)C)S(C)(=O)=O)c(-c3ccccc3)cc12` [Example 16, 2-(4-fluorophenyl)-N-methyl-6-[(2-methylpropyl) (methylsulfonyl)amino]-5-phenyl-1-benzofuran-3-carboxamide]: the IC50 was found to be 68 nM.
For `CCCCN(c1cc2oc(-c3ccc(F)cc3)c(C(=O)NC)c2cc1-c1ccccc1)S(C)(=O)=O` [Example 17, 6-[butyl (methylsulfonyl)amino]-2-(4-fluorophenyl)-N-methyl-5-phenyl-1-benzofuran-3-carboxamide] the value was 48 nM.
